Counter-ions that a name gives are not always drawn.
Biological target: T1, Lysozyme from chicken egg white (Gallus gallus, UniProt P00698)
T1 construct: gene LYZ
Assay: isothermal titration calorimetry (VP-ITC)
Format: binding
Conditions: read-out: K

T1 sequence (P00698 19-147): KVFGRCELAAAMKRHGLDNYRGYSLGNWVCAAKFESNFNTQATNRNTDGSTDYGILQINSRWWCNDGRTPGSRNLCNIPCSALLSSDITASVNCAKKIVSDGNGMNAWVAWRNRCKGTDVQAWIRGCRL

Kd: 2620 nM
Compound: O=S(=O)(O)CCCSc1nc2ccccc2s1 [BTS, 3-(2-Benzohiazolylthio)-1-propane-sulfonic acid sodium salt]
